Test results as given in ChEMBL document CHEMBL1130419, “8-(1H-imidazol-1-yl)-7-nitro-4(5H)-imidazo[1,2-alpha]quinoxalinone and related compounds: synthesis and structure-activity relationships for the AMPA-type non-NMDA receptor” (J Med Chem, 1997).

How the values were obtained:
[1] = target: T1, Glutamate receptor ionotropic, AMPA (Rattus norvegicus, UniProt P19490+P19491+P19492+P19493); test: Inhibition of [3H]AMPA binding to Ionotropic glutamate receptor from rat whole brain.
Rattus norvegicus [2] = organism: Rattus norvegicus; test: The compound was tested for anti-KA-Induced Neurotoxicity in rat primary hippocampal cultures.; format: functional; details: Hippocampus
Glutamate NMDA receptor [3] = test: The compound was tested for its ability to inhibit [3H]Glu binding to N-methyl-D-aspartate glutamate receptor from rat whole brain.
Glutamate NMDA receptor [4] = test: The compound was tested for its ability to inhibit [3H]Gly binding to N-methyl-D-aspartate glutamate receptor from rat whole brain.
[5] = target: T1, Glutamate receptor ionotropic, AMPA; test: The compound was tested for its ability to inhibit [3H]AMPA binding to Ionotropic glutamate receptor AMPA from rat whole brain
Glutamate NMDA receptor [6] = test: The compound was tested for its ability to inhibit [3H]Gly binding to N-methyl-D-aspartate glutamate receptor from rat whole brain
Rattus norvegicus [7] = organism: Rattus norvegicus; test: The compound was tested for anti-KA-Induced Neurotoxicity in rat primary hippocampal cultures; format: functional; details: Hippocampus

SMILES: Cc1nnc2c(O)nc3cc([N+](=O)[O-])c(-n4ccnc4)cc3n12
- Ki [1]: 96 nM

SMILES: Oc1nc2cc(C(F)(F)F)c(-n3ccnc3)cc2n2ccnc12
- IC50 (Rattus norvegicus [2]): 320 nM
- Ki [1]: 66 nM

SMILES: Cc1nccn1-c1cc2nc(O)c(O)nc2cc1[N+](=O)[O-]
- Ki [1]: 390 nM

SMILES: CCc1cnc2c(O)nc3cc([N+](=O)[O-])c(-n4ccnc4)cc3n12
- Ki [1]: 20 nM

SMILES: O=C1Nc2cc(-n3ccnc3)c([N+](=O)[O-])cc2C1=O
- Ki [1]: > 100000 nM

SMILES: O=[N+]([O-])c1cc2nc(O)c3nccn3c2cc1-n1ccnc1
- Ki (Glutamate NMDA receptor [3]): > 300000 nM
- Ki (Glutamate NMDA receptor [4]): > 300000 nM
- IC50 (Rattus norvegicus [2]): 300 nM
- Ki [1]: 57 nM

SMILES: CCc1nnc2c(O)nc3cc([N+](=O)[O-])c(-n4ccnc4)cc3n12
- Ki [1]: 48 nM

SMILES: CCC1CN=C2C(=O)Nc3cc([N+](=O)[O-])c(-n4ccnc4)cc3N21 (configuration not stated)
- Ki [1]: 150 nM

SMILES: CCCc1nnc2c(O)nc3cc(-n4ccnc4)c([N+](=O)[O-])cc3n12
- Ki [1]: 6600 nM

SMILES: CCCc1nnc2c(O)nc3cc([N+](=O)[O-])c(-n4ccnc4)cc3n12
- Ki [5]: 99 nM

SMILES: CCCn1c(=O)c(=O)[nH]c2cc([N+](=O)[O-])c(-n3ccnc3)cc21
- Ki [1]: 130 nM

SMILES: O=[N+]([O-])c1cc2nc(O)c3nncn3c2cc1-n1ccnc1
- Ki [1]: 190 nM

SMILES: CCCCc1nnc2c(O)nc3cc([N+](=O)[O-])c(-n4ccnc4)cc3n12
- Ki [5]: 70 nM

SMILES: O=c1[nH]c2cc([N+](=O)[O-])c(-n3ccnc3)cc2n(O)c1=O
- Ki (Glutamate NMDA receptor [6]): 4200 nM
- IC50 (Rattus norvegicus [7]): 310 nM

SMILES: Cc1nccn1-c1cc2c(cc1[N+](=O)[O-])nc(O)c1ncc(C)n12
- Ki [1]: > 10000 nM

SMILES: NS(=O)(=O)c1cccc2c1c([N+](=O)[O-])cc1nc(O)c(O)nc12 [NBQX]
- IC50 (Rattus norvegicus [2]): 380 nM

SMILES: O=c1[nH]c2cc(-n3ccnc3)c([N+](=O)[O-])cc2[nH]c1=O [YM-90K]
- IC50 (Rattus norvegicus [2]): 810 nM
